From EP4603105A1, “PHARMACEUTICAL COMPOSITION CONTAINING CYCLIC COMPOUND HAVING SELECTIVE KRAS INHIBITORY EFFECT AGAINST HRAS AND NRAS” (CHUGAI SEIYAKU KABUSHIKI KAISHA, priority 2022, dated 2024)

Assays:
[1] = system: human lung cancer strain NCI-H441; type: cell-based
Summary of the method: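 Readout: […] after the ATP-based reagent. Compound: serial dilutions in dimethyl sulfoxide.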

[2] = target: GDP-bound NRAS wild-type protein (Homo sapiens, UniProt P01111); assay: Binding to NRAS by surface plasmon resonance (SPR), KD and KD ratio to KRAS; conditions: ratio of the KD value with respect to GDP-bound NRAS wild-type protein to the KD value with respect to KRAS
Summary of the method: (§1)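 GDP-loaded biotinylated Avi-tag RAS proteins (E. coli-expressed) captured on a Biotin CAPture chip at ~100–300 RU; single-cycle kinetics at 30°C, 100 µL/min, 75 s injections of rising compound concentrations. HBS pH 7.4 running buffer with 1 mM DTT, 10 mM MgCl2, 10 µM GDP, 4% DMSO. KD from 1:1 binding fit.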

HRAS wild-type protein = HRAS wild-type protein (Homo sapiens, UniProt P01112); assay: Binding to HRAS by surface plasmon resonance (SPR), KD and KD ratio to KRAS; conditions: ratio of the KD value with respect to HRAS wild-type protein to the KD value with respect to KRAS
Summary of the method: as §1

Chain of HRAS wild-type protein (P01112 whole entry): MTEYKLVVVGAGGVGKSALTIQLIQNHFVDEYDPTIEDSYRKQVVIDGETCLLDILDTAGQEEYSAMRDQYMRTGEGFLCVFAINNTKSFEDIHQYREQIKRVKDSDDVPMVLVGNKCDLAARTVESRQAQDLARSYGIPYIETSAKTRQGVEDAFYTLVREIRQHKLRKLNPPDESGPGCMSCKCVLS
Chain of GDP-bound NRAS wild-type protein (P01111 whole entry): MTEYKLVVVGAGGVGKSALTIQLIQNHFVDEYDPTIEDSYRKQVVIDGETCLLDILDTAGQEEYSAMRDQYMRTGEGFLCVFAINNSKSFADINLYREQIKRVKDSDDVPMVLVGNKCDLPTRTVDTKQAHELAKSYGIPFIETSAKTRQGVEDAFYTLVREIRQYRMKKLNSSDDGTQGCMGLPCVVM

SMILES	IC50 [1] [nM]	NRAS /KRAS [2]	HRAS /KRAS (HRAS wild-type protein)
CCO[C@@H]1C[C@H]2C(=O)NC3(CC(C)(C)C3)C(=O)N(C)[C@@H](C(CC)CC)C(=O)N(C)[C@H](C(=O)N(C)C)CC(=O)N(C)[C@@H](CC3CCC3)C(=O)N[C@@H]([C@@H](C)CC)C(=O)N(C)CC(=O)N(C)[C@H]3C/C=C\CCN(C3=O)[C@@H](Cc3ccc(C)cc3)C(=O)N(C)CC(=O)N[C@@H](CCc3ccc(Cl)c(Cl)c3)C(=O)N2C1 [PP2120]	75.5	AA (a compound having 20 or more is denoted as AA)	A (a compound having 10 or more and less than 20 is denoted as A)
CCO[C@@H]1C[C@H]2C(=O)NC3(CC(C)(C)C3)C(=O)N(C)[C@@H](C(CC)CC)C(=O)N(C)[C@H](C(=O)N(C)C)CC(=O)N(C)[C@@H](COC)C(=O)N[C@@H]([C@@H](C)CC)C(=O)N(C)CC(=O)N(C)[C@H]3C/C=C\CCN(C3=O)[C@@H](Cc3ccc(C(F)(F)F)cc3)C(=O)N(C)CC(=O)N[C@@H](CCc3cc(F)c(C(F)(F)F)c(F)c3)C(=O)N2C1 [PP2121]	11.4	AA (a compound having 20 or more is denoted as AA)	A (a compound having 10 or more and less than 20 is denoted as A)
CCO[C@@H]1C[C@H]2C(=O)NC3(CC(C)(C)C3)C(=O)N(C)[C@@H](C(CC)CC)C(=O)N(C)[C@H](C(=O)N(C)C)CC(=O)N(C)[C@@H](C(C)C)C(=O)N[C@@H]([C@@H](C)CC)C(=O)N(C)CC(=O)N(C)[C@H]3C/C=C\CCN(C3=O)[C@@H](Cc3ccc(C)cc3)C(=O)N(C)CC(=O)N[C@@H](CCc3ccc(Cl)c(Cl)c3)C(=O)N2C1 [PP2122]	107	AA (a compound having 20 or more is denoted as AA)	A (a compound having 10 or more and less than 20 is denoted as A)
CCO[C@@H]1C[C@H]2C(=O)NC3(CC(C)(C)C3)C(=O)N(C)[C@@H](C(CC)CC)C(=O)N(C)[C@H](C(=O)N3CCCC3)CC(=O)N(C)[C@@H](COC)C(=O)N[C@@H]([C@@H](C)CC)C(=O)N(C)CC(=O)N(C)[C@H]3C/C=C\CCN(C3=O)[C@@H](Cc3ccc(C(F)(F)F)cc3)C(=O)N(C)CC(=O)N[C@@H](CCc3cc(F)c(C(F)(F)F)c(F)c3)C(=O)N2C1 [PP2123]	24.3	A (a compound having 10 or more and less than 20 is denoted as A)	A (a compound having 10 or more and less than 20 is denoted as A)
CCO[C@@H]1C[C@H]2C(=O)NC3(CC(C)(C)C3)C(=O)N(C)[C@@H](C(CC)CC)C(=O)N(C)[C@H](C(=O)N(C)C)CC(=O)N(C)[C@@H](CC3CC3)C(=O)N[C@@H]([C@@H](C)CC)C(=O)N(C)CC(=O)N(C)[C@H]3C/C=C\CCN(C3=O)[C@@H](Cc3ccc(C(F)(F)F)cc3)C(=O)N(C)CC(=O)N[C@@H](CCc3ccc(C(F)(F)F)c(Cl)c3)C(=O)N2C1 [PP2124]	18.7	AA (a compound having 20 or more is denoted as AA)	A (a compound having 10 or more and less than 20 is denoted as A)
CCO[C@@H]1C[C@H]2C(=O)NC3(CC(C)(C)C3)C(=O)N(C)[C@@H](C(CC)CC)C(=O)N(C)[C@H](C(=O)N(C)C)CC(=O)N(C)[C@@H](COC)C(=O)N[C@@H]([C@@H](C)CC)C(=O)N(C)CC(=O)N(C)[C@H]3C/C=C\CCN(C3=O)[C@@H](Cc3ccc(C(F)(F)F)cc3)C(=O)N(C)CC(=O)N[C@@H](CCc3ccc(C(F)(F)F)c(Cl)c3)C(=O)N2C1 [PP2126]	13.4	A (a compound having 10 or more and less than 20 is denoted as A)	B (a compound having 3 or more and less than 10 is denoted as B)
CCO[C@@H]1C[C@H]2C(=O)NC3(CC(C)(C)C3)C(=O)N(C)[C@@H](C(CC)CC)C(=O)N(C)[C@H](C(=O)N(C)C)CC(=O)N(C)[C@@H](CC(C)C)C(=O)N[C@@H]([C@@H](C)CC)C(=O)N(C)CC(=O)N(C)[C@H]3C/C=C\CCN(C3=O)[C@@H](Cc3ccc(C(F)(F)F)cc3)C(=O)N(C)CC(=O)N[C@@H](CCc3cc(F)c(C(F)(F)F)c(F)c3)C(=O)N2C1 [PP2127]	12.5	AA (a compound having 20 or more is denoted as AA)	A (a compound having 10 or more and less than 20 is denoted as A)
CCO[C@@H]1C[C@H]2C(=O)NC3(CC(C)(C)C3)C(=O)N(C)[C@@H](C(CC)CC)C(=O)N(C)[C@H](C(=O)N3CCCC3)CC(=O)N(C)[C@@H](COC)C(=O)N[C@@H]([C@@H](C)CC)C(=O)N(C)CC(=O)N(C)[C@H]3C/C=C\CCN(C3=O)[C@@H](Cc3ccc(C(F)(F)F)cc3)C(=O)N(C)CC(=O)N[C@@H](CCc3ccc(C(F)(F)F)c(Cl)c3)C(=O)N2C1 [PP2128]	14.8	AA (a compound having 20 or more is denoted as AA)	A (a compound having 10 or more and less than 20 is denoted as A)
CCO[C@@H]1C[C@H]2C(=O)NC3(CC(C)(C)C3)C(=O)N(C)[C@@H](C(CC)CC)C(=O)N(C)[C@H](C(=O)N(C)C)CC(=O)N(C)[C@@H](CC(C)C)C(=O)N[C@@H]([C@@H](C)CC)C(=O)N(C)CC(=O)N(C)[C@H]3C/C=C\CCN(C3=O)[C@@H](Cc3ccc(C(F)(F)F)cc3)C(=O)N(C)CC(=O)N[C@@H](CCc3ccc(C(F)(F)F)c(Cl)c3)C(=O)N2C1 [PP2132]	18.4	AA (a compound having 20 or more is denoted as AA)	A (a compound having 10 or more and less than 20 is denoted as A)
CCO[C@@H]1C[C@H]2C(=O)NC3(CC(C)(C)C3)C(=O)N(C)[C@@H](C(CC)CC)C(=O)N(C)[C@H](C(=O)N(C)C)CC(=O)N(C)[C@@H](CC3CCC3)C(=O)N[C@@H]([C@@H](C)CC)C(=O)N(C)CC(=O)N(C)[C@H]3C/C=C\CCN(C3=O)[C@@H](Cc3ccc(C(F)(F)F)cc3)C(=O)N(C)CC(=O)N[C@@H](CCc3cc(F)c(C(F)(F)F)c(F)c3)C(=O)N2C1 [PP2133]	16.2	AA (a compound having 20 or more is denoted as AA)	A (a compound having 10 or more and less than 20 is denoted as A)

Stronger by IC50 [1], values ahead:

IC50 [1] [nM]	SMILES	NRAS /KRAS [2]	HRAS /KRAS (HRAS wild-type protein)
6.1	C=CCN1CC(=O)N(C)[C@H]2C/C=C\CCN(C2=O)[C@@H](Cc2ccc(C(F)(F)F)cc2)C(=O)N(C)CC(=O)N[C@@H](CCc2ccc(C(F)(F)F)c(OC)c2)C(=O)N2C[C@H](OCC)C[C@H]2C(=O)NC2(CC(C)(C)C2)C(=O)N(C)[C@@H](C2CCCC2)C(=O)N(C)[C@H](C(=O)N(C)C)CC(=O)N(C)[C@@H](CCC)C(=O)N[C@@H]([C@@H](C)CC)C1=O [PP2106]	A (a compound having 10 or more and less than 20 is denoted as A)	A (a compound having 10 or more and less than 20 is denoted as A)
7.8	C#CCN1CC(=O)N(C)[C@H]2C/C=C\CCN(C2=O)[C@@H](Cc2ccc(C(F)(F)F)cc2)C(=O)N(C)CC(=O)N[C@@H](CCc2ccc(C(F)(F)F)c(OC)c2)C(=O)N2C[C@H](OCC)C[C@H]2C(=O)NC2(CC(C)(C)C2)C(=O)N(C)[C@@H](C2CCCC2)C(=O)N(C)[C@H](C(=O)N(C)C)CC(=O)N(C)[C@@H](CCC)C(=O)N[C@@H]([C@@H](C)CC)C1=O [PP2107]	A (a compound having 10 or more and less than 20 is denoted as A)	A (a compound having 10 or more and less than 20 is denoted as A)
8.1	CCO[C@@H]1C[C@H]2C(=O)NC3(CCC3)C(=O)N(C)[C@@H](C3CCCC3)C(=O)N(C)[C@H](C(=O)N(C)CC)CC(=O)N(C)[C@H]3CCCCCc4ccc(cc4)C[C@@H](C(=O)N(C)CC(=O)N[C@@H](CCc4ccc(C(F)(F)F)c(OC)c4)C(=O)N2C1)N1CC/C=C\C[C@@H](C1=O)N(C)C(=O)CN(C)C(=O)[C@H]([C@@H](C)CC)NC3=O [PP2118]	A (a compound having 10 or more and less than 20 is denoted as A)	B (a compound having 3 or more and less than 10 is denoted as B)
8.9	CCO[C@@H]1C[C@H]2C(=O)NC3(CC(C)(C)C3)C(=O)N(C)[C@@H](C(CC)CC)C(=O)N(C)[C@H](C(=O)N(C)C)CC(=O)N(C)[C@@H](CC3CC3)C(=O)N[C@@H]([C@@H](C)CC)C(=O)N(C)CC(=O)N(C)[C@H]3C/C=C\CCN(C3=O)[C@@H](Cc3ccc(C(F)(F)F)cc3)C(=O)N(C)CC(=O)N[C@@H](CCc3cc(F)c(C(F)(F)F)c(F)c3)C(=O)N2C1 [PP2119]	A (a compound having 10 or more and less than 20 is denoted as A)	B (a compound having 3 or more and less than 10 is denoted as B)
4	CCC[C@H]1C(=O)N[C@@H]([C@@H](C)CC)C(=O)N(C)CC(=O)N(C)[C@H]2C/C=C\CCN(C2=O)[C@@H](Cc2ccc(C(F)(F)F)cc2)C(=O)N(C)CC(=O)N[C@@H](CCc2cc(F)c(C(F)(F)F)c(F)c2)C(=O)N2C[C@H](OCC)C[C@H]2C(=O)NC2(CC(C)(C)C2)C(=O)N(C)[C@@H](C(CC)CC)C(=O)N(C)[C@H](C(=O)N(C)C)CC(=O)N1C [PP2125]	AA (a compound having 20 or more is denoted as AA)	A (a compound having 10 or more and less than 20 is denoted as A)
